In US20150010928A1, “MEANS AND METHODS FOR ASSESSING AN ENDOCRINE DISEASE OR DISORDER” (priority 2012, published 2015):
Where a name gives a salt, the structure may show the parent alone. Marks after values point to notes of the source that are not given here.

Assays:
female rats = assay: Plasma metabolite profiling (GC-MS, LC-MS, SPE-LC-MS) in female rats dosed once daily over 28 days (OECD 407); assay type: in vivo, rat; set-up: key to 5-O-Methylsphingosine (d18:1) / Isopalmitic acid (C16:0) / Valine / Alanine / Ketoleucine / Serine / Lactate / Arginine: ratio of treated group mean to untreated control mean; details: for Alanine / Arginine / Ketoleucine / Lactate / Proline / Serine / Valine: Table 17b
Protocol: Each dose group in the studies consisted of five rats per sex. Additional groups of each 5 male and female animals served as controls. […] All animals of the animal population were kept under the same constant temperature (20-24±3° C.) and the same constant humidity (30-70%). The animals of the animal population were fed ad libitum. The food to be used was essentially free of chemical or microbial contaminants. Drinking water was also offered ad libitum. Accordingly, the water was free of chemical and microbial contaminants as laid down in the European Drinking Water Directive 98/83/EG. The illumination period was 12 hours light followed by 12 hours darkness (12 hours light, from 6:00 to 18:00, and 12 hours darkness, from 18:00 to 6:00). […] The test substances (compounds) in the Tables 1 to 17 below were dosed and administered as described in the Table 18.
In the morning of day 7, 14, and 28, blood was taken from the retroorbital venous plexus from fasted anaesthetized animals. From each animal, 1 ml of blood was collected with EDTA as anticoagulant. The samples were centrifuged for generation of plasma. All plasma samples were covered with a N2 atmosphere and then stored at −80° C. until analysis.
For mass spectrometry-based metabolite profiling analyses plasma samples were extracted and a polar and a non-polar (lipid) fraction was obtained. For GC-MS analysis, the non-polar fraction was treated with methanol under acidic conditions to yield the fatty acid methyl esters. Both fractions were further derivatised with O-methyl-hydroxyamine hydrochloride and pyridine to convert Oxogroups to O-methyloximes and subsequently with a silylating agent before analysis. In LC-MS analysis, both fractions were reconstituted in appropriate solvent mixtures. HPLC was performed by gradient elution on reversed phase separation columns. Mass spectrometric detection which allows target and high sensitivity MRM (Multiple Reaction Monitoring) profiling in parallel to a full screen analysis was applied as described in WO2003073464.
Steroids and their metabolites were measured by online SPE-LC-MS (Solid phase extraction-LC-MS).
Following comprehensive analytical validation steps, the data for each analyte were normalized against data from pool samples. These samples were run in parallel through the whole process to account for process variability. The significance of treatment group values specific for sex, treatmentduration and metabolite was determined by comparing means of the treated groups to the means of the respective untreated control groups using WELCH-test and quantified with treatment ratios versus control and p-values.
The identification of the most important biomarkers per toxicity pattern was done by a ranking of the analytes in the tables below. Therefore the metabolic changes in reference treatments of a given pattern (shown in the table) were compared with changes of the same metabolite in other unrelated treatments. […] The maximum absolute value of the respective TVALUE was taken to indicate the most important metabolite for the pattern.

male rats = assay: Plasma metabolite profiling (GC-MS, LC-MS, SPE-LC-MS) in male rats dosed once daily over 28 days (OECD 407); assay type: in vivo, rat; details: high dose; for Cholesterol / Choline plasmalogen No 02 / Lignoceric acid (C24:0) / Sphingomyelin (d18:1, C16:0) / Sphingomyelin (d18:2, C16:0) / erythro-Sphingosine (d18:1): Table 14b
Summary of the method: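 Polar and lipid fractions profiled by GC-MS and LC-MS/MRM, steroids by online SPE-LC-MS; pool-normalized data compared to controls by Welch test as treatment ratios and p-values.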

[1] = female rats, plasma, low dose, day 7
[2] = female rats, plasma, low dose, day 14
[3] = female rats, plasma, low dose, day 28
[4] = female rats, plasma, high dose, day 7
[5] = female rats, plasma, high dose, day 14
[6] = female rats, plasma, high dose, day 28

## O=c1c(-c2ccc(O)cc2)coc2cc(O)cc(O)c12 [Genistein]
Female rats; [1]
  3-O-Methylsphingosine (d18:1), ratio versus control: 0.25 *
  5-O-Methylsphingosine (d18:1), ratio versus control: 0.27 *
  16-Methylheptadecanoic acid, ratio versus control: 0.64 *
  17-Methyloctadecanoic acid, ratio versus control: 0.7 *
  Arachidonic acid (C20:cis[5,8,11,14]4), ratio versus control: 0.59 *
  Behenic acid (C22:0), ratio versus control: 0.45 *
  Cholesterol, ratio versus control: 0.55 *
  Choline plasmalogen No 03, ratio versus control: 0.74 *
  Docosahexaenoic acid (C22:cis[4,7,10,13,16,19]6), ratio versus control: 0.52 *
  Galactose, lipid fraction, ratio versus control: 0.51 *
  Lignoceric acid (C24:0), ratio versus control: 0.45 *
  Lysophosphatidylcholine (C17:0), ratio versus control: 0.8 *
  Malate, ratio versus control: 0.98 *
  Nervonic acid (C24:cis[15]1), ratio versus control: 0.45 *
  Sphingomyelin (d18:2, C16:0), ratio versus control: 0.55 *
  Stearic acid (C18:0), ratio versus control: 0.63 *
  Tricosanoic acid (C23:0), ratio versus control: 0.32 *
  Uric acid, ratio versus control: 0.73 *
  alpha-Tocopherol, ratio versus control: 0.5 *
  erythro-Sphingosine (d18:1), ratio versus control: 0.29 *
  myo-Inositol, lipid fraction, ratio versus control: 0.62 *
  myo-Inositol-2-phosphate, lipid fraction, ratio versus control: 0.48 *
  threo-Sphingosine (d18:1), ratio versus control: 0.33 *
Female rats; [2]
  3-O-Methylsphingosine (d18:1), ratio versus control: 0.55 *
  5-O-Methylsphingosine (d18:1), ratio versus control: 0.58 *
  16-Methylheptadecanoic acid, ratio versus control: 0.72 *
  17-Methyloctadecanoic acid, ratio versus control: 0.73 *
  Arachidonic acid (C20:cis[5,8,11,14]4), ratio versus control: 0.66 *
  Behenic acid (C22:0), ratio versus control: 0.52 *
  Cholesterol, ratio versus control: 0.66 *
  Choline plasmalogen No 03, ratio versus control: 0.8 *
  Docosahexaenoic acid (C22:cis[4,7,10,13,16,19]6), ratio versus control: 0.71 *
  Galactose, lipid fraction, ratio versus control: 0.66 *
  Lignoceric acid (C24:0), ratio versus control: 0.53 *
  Lysophosphatidylcholine (C17:0), ratio versus control: 0.9 *
  Malate, ratio versus control: 0.75 *
  Nervonic acid (C24:cis[15]1), ratio versus control: 0.7 *
  Sphingomyelin (d18:2, C16:0), ratio versus control: 0.74 *
  Stearic acid (C18:0), ratio versus control: 0.83 *
  Tricosanoic acid (C23:0), ratio versus control: 0.65 *
  Uric acid, ratio versus control: 0.72 *
  alpha-Tocopherol, ratio versus control: 0.65 *
  erythro-Sphingosine (d18:1), ratio versus control: 0.61 *
  myo-Inositol, lipid fraction, ratio versus control: 0.76 *
  myo-Inositol-2-phosphate, lipid fraction, ratio versus control: 0.66^
  threo-Sphingosine (d18:1), ratio versus control: 0.65 *
Female rats; [3]
  3-O-Methylsphingosine (d18:1), ratio versus control: 0.44 *
  5-O-Methylsphingosine (d18:1), ratio versus control: 0.47 *
  16-Methylheptadecanoic acid, ratio versus control: 0.69 *
  17-Methyloctadecanoic acid, ratio versus control: 0.86 *
  Arachidonic acid (C20:cis[5,8,11,14]4), ratio versus control: 0.46 *
  Behenic acid (C22:0), ratio versus control: 0.57 *
  Cholesterol, ratio versus control: 0.43 *
  Choline plasmalogen No 03, ratio versus control: 0.57 *
  Docosahexaenoic acid (C22:cis[4,7,10,13,16,19]6), ratio versus control: 0.43 *
  Galactose, lipid fraction, ratio versus control: 0.62 *
  Lignoceric acid (C24:0), ratio versus control: 0.44 *
  Lysophosphatidylcholine (C17:0), ratio versus control: 0.81 *
  Malate, ratio versus control: 0.66 *
  Nervonic acid (C24:cis[15]1), ratio versus control: 0.43 *
  Sphingomyelin (d18:2, C16:0), ratio versus control: 0.62 *
  Stearic acid (C18:0), ratio versus control: 0.66 *
  Tricosanoic acid (C23:0), ratio versus control: 0.42 *
  Uric acid, ratio versus control: 0.57 *
  alpha-Tocopherol, ratio versus control: 0.46 *
  erythro-Sphingosine (d18:1), ratio versus control: 0.51 *
  myo-Inositol, lipid fraction, ratio versus control: 0.75 *
  myo-Inositol-2-phosphate, lipid fraction, ratio versus control: 0.54 *
  threo-Sphingosine (d18:1), ratio versus control: 0.57 *

## C#C[C@]1(OC(C)=O)CC[C@H]2[C@@H]3CCC4=CC(=O)CC[C@@H]4[C@H]3CC[C@@]21C [Norethindrone acetate]
Female rats; f7, high dose, Table 14a
  Cholesterol: 0.17 *
  Choline plasmalogen No 02: 0.3 *
  Lignoceric acid (C24:0): 0.27^
  Sphingomyelin (d18:1, C16:0): 0.12 *
  Sphingomyelin (d18:2, C16:0): 0.19 *
  erythro-Sphingosine (d18:1): 0.03 *
Male rats; male rats, plasma, day 7
  Alanine, ratio versus control: 0.88 *
  Androstenedione, ratio versus control: 0.42 *
  Cholesterol, ratio versus control: 0.28 *
  Glycine, ratio versus control: 0.86 *
  Heptadecanoic acid (C17:0), ratio versus control: 0.56 *
  Testosterone, ratio versus control: 0.59 *
  Threonine, ratio versus control: 0.88 *
  Uric acid, ratio versus control: 0.7 *
  alpha-Tocopherol, ratio versus control: 0.32 *

## O=C(c1ccc(OCCN2CCCCC2)cc1)c1c(-c2ccc(O)cc2)sc2cc(O)ccc12 [Raloxifene Hydrochloride]
Female rats; [4]
  Glycine, ratio versus control: 1.53 *
  Lysine, ratio versus control: 0.8 *
  Lysophosphatidylcholine (C17:0), ratio versus control: 0.74 *
  Phosphatidylcholine (C18:0, C20:3), ratio versus control: 0.73 *
  Phosphatidylcholine (C18:0, C22:6), ratio versus control: 0.87 *
  Proline, ratio versus control: 1.16 *
  TAG (C16:0, C18:2), ratio versus control: 2.05 *
  TAG (C18:2, C18:3), ratio versus control: 1.84 *
  TAG (DAG-Fragment), ratio versus control: 1.8 *
  TAG No 059, ratio versus control: 1.61 *
  Thyroxine (T4), ratio versus control: 1.36^
Female rats; [5]
  Coenzyme Q9, ratio versus control: 1.29 *
  Glycine, ratio versus control: 1.51 *
  Lysine, ratio versus control: 0.61 *
  Lysophosphatidylcholine (C17:0), ratio versus control: 0.72 *
  Phosphatidylcholine (C16:0, C20:5), ratio versus control: 1.25 *
  Phosphatidylcholine (C18:0, C20:3), ratio versus control: 0.86 *
  Phosphatidylcholine (C18:0, C22:6), ratio versus control: 0.85 *
  Proline, ratio versus control: 1.2 *
  TAG (C16:0, C18:2), ratio versus control: 1.27 *
  TAG (C18:2, C18:3), ratio versus control: 1.31 *
  TAG (DAG-Fragment), ratio versus control: 1.4 *
  TAG No 059, ratio versus control: 1.47 *
  Thyroxine (T4), ratio versus control: 2.5 *
Female rats; [6]
  Coenzyme Q9, ratio versus control: 1.31 *
  Glycine, ratio versus control: 1.4 *
  Lysine, ratio versus control: 0.81 *
  Lysophosphatidylcholine (C17:0), ratio versus control: 0.72 *
  Phosphatidylcholine (C18:0, C20:3), ratio versus control: 0.81 *
  Phosphatidylcholine (C18:0, C22:6), ratio versus control: 0.72 *
  TAG (C16:0, C18:2), ratio versus control: 1.95 *
  TAG (C18:2, C18:3), ratio versus control: 1.64 *
  TAG (DAG-Fragment), ratio versus control: 1.76 *
  TAG No 059, ratio versus control: 1.61 *
  Thyroxine (T4), ratio versus control: 1.57 *
Female rats; rat, in vivo
  Coenzyme Q9, ratio versus control: 1.18 *
  Proline, ratio versus control: 1.14 *
Male rats; m7
  Cholesterol: 0.44
  Choline plasmalogen No 02: 0.67
  Lignoceric acid (C24:0): 0.45
  Sphingomyelin (d18:1, C16:0): 0.52
  Sphingomyelin (d18:2, C16:0): 0.82
  erythro-Sphingosine (d18:1): 0.38
Male rats; m14
  Cholesterol: 0.47
  Choline plasmalogen No 02: 0.69
  Lignoceric acid (C24:0): 0.39
  Sphingomyelin (d18:1, C16:0): 0.62
  Sphingomyelin (d18:2, C16:0): 0.78
  erythro-Sphingosine (d18:1): 0.49
Male rats; m28
  Cholesterol: 0.63
  Choline plasmalogen No 02: 0.65
  Lignoceric acid (C24:0): 0.64
  Sphingomyelin (d18:1, C16:0): 0.65
  Sphingomyelin (d18:2, C16:0): 0.63
  erythro-Sphingosine (d18:1): 0.57

## CN(CCOc1ccc(CC2SC(=O)NC2=O)cc1)c1ccccn1 (stereo not shown) [Rosiglitazone maleate]
Female rats; f7, female rats, high dose, Table 17a
  Isopalmitic acid (C16:0): 1.46 *
Female rats; f7, female rats, high dose
  Alanine: 0.83
  Arginine: 0.85
  Ketoleucine: 0.72
  Lactate: 0.56
  Proline: 0.91
  Serine: 1
  Valine: 0.92
Female rats; f14, female rats, high dose
  Alanine: 0.81
  Arginine: 0.73
  Ketoleucine: 0.71
  Lactate: 1.24
  Proline: 0.81
  Serine: 0.91
  Valine: 0.72
Female rats; f28, female rats, high dose, Table 17a
  Isopalmitic acid (C16:0): 1.52 *
Female rats; f28, female rats, high dose
  Alanine: 0.92
  Arginine: 0.93
  Ketoleucine: 0.67
  Lactate: 0.65
  Proline: 1.03
  Serine: 1.06
  Valine: 0.98
Female rats; rat, in vivo
  Isopalmitic acid (C16:0): 1.41 *
